What was measured:
μ-opioid receptor [1] = target: T1, μ-opioid receptor (Homo sapiens (Human), UniProt P35372); experiment: μ-opioid receptor radioligand ([3H]-diprenorphine) dose-displacement binding assay; settings: binding affinity, read-out: Opioid Receptor Ki (nM) μ
Experimental: μ-Opioid Receptor Binding Assay Procedures: Radioligand dose-displacement binding assays for μ-opioid receptors used 0.3 nM [^3H]-diprenorphine (Perkin Elmer, Shelton, Conn.), with […] membrane protein/well in a final volume of 500 μl binding buffer (10 mM MgCl2, 1 mM EDTA, 5% DMSO, 50 mM HEPES, pH 7.4). Reactions were carried out in the absence or presence of increasing concentrations of unlabeled naloxone. All reactions were conducted in 96-deep well polypropylene plates for 2 hours at room temperature. Binding reactions were terminated by rapid filtration onto 96-well Unifilter GF/C filter plates (Perkin Elmer, Shelton, Conn.), presoaked in 0.5% polyethylenimine using a 96-well tissue harvester (Perkin Elmer, Shelton, Conn.) followed by performing three filtration washes with 500 μl of ice-cold binding buffer. Filter plates were subsequently dried at 50° C. for 2-3 hours. BetaScint scintillation cocktail (Perkin Elmer, Shelton, Conn.) was added (50 μl/well), and plates were counted using a Packard Top-Count for 1 min/well. The data were analyzed using the one-site competition curve fitting functions in GraphPad PRISM™ v. 3.0 or higher (San Diego, Calif.), or an in-house function for one-site competition curve-fitting.
(§1) In TABLE 1, binding affinity of certain Compounds of the Invention to the μ-, δ- and κ-opioid receptors was determined as described above.

κ opioid receptor [2] = target: T2, κ opioid receptor (Homo sapiens (Human), UniProt P41145); experiment: κ-opioid receptor radioligand ([3H]-U69,593) dose-displacement binding assay; settings: binding affinity, read-out: Opioid Receptor Ki (nM) κ
Experimental: κ-Opioid Receptor Binding Assay Procedures: Membranes from recombinantHEK-293 cells, CHO or U-2 OS cells expressing the recombinant human κ opioid receptor (κ) were prepared by lysing cells in ice cold hypotonic buffer (2.5 mM MgCl2, 50 mM HEPES, pH 7.4) (10 mL/10 cm dish) followed by homogenization with a tissue grinder/Teflon pestle. Membranes were collected by centrifugation at 30,000×g for 15 min at 4° C. and pellets were resuspended in hypotonic buffer to a final concentration of 1-3 mg/mL. Protein concentrations were determined using the BioRad protein assay reagent with bovine serum albumen as standard. Aliquots of κ receptor membranes were stored at −80° C.
Radioligand dose displacement assays used 0.4 nM [^3H]-U69,593 (GE Healthcare, Piscataway, N.J.; 40 Ci/mmole) with 15 μg membrane protein (recombinant κ opioid receptor expressed in HEK 293 cells; in-house prep) in a final volume of 200 μl binding buffer (5% DMSO, 50 mM Trizma base, pH 7.4). Non-specific binding was determined in the presence of 10 μM unlabeled naloxone or U69,593. All reactions were performed in 96-well polypropylene plates for 1 hour at a temperature of about 25° C. Binding reactions were terminated by rapid filtration onto 96-well Unifilter GF/C filter plates (Perkin Elmer, Shelton, Conn.) presoaked in 0.5% polyethylenimine (Sigma). Harvesting was performed using a 96-well tissue harvester (Perkin Elmer, Shelton, Conn.) followed by five filtration washes with 200 μl ice-cold binding buffer. Filter plates were subsequently dried at 50° C. for 1-2 hours. Fifty μl/well scintillation cocktail (Perkin Elmer, Shelton, Conn.) was added and plates were counted in a Packard Top-Count for 1 min/well.
as §1

μ-opioid receptor [3] = target: T1, μ-opioid receptor; experiment: μ-opioid receptor [35S]GTPγS functional assay, HEK-293 or CHO cells; assay type: biochemical
Experimental: (§2) μ-Opioid Receptor Functional Assay Procedures: [^35S]GTPγS functional assays were conducted using freshly thawed μ-receptor membranes prepared in-house from a cell line expressing recombinant μ opioid receptor in a HEK-293, CHO or U-2 OS cell background, or purchased from a commercial source (Perkin Elmer, Shelton, Conn.; or DiscovRx, Fremont, Calif.). Assay reactions were prepared by sequentially adding the following reagents to binding buffer (100 mM NaCl, 10 mM MgCl2, 20 mM HEPES, pH 7.4) on ice (final concentrations indicated): membrane protein (0.026 mg/mL), saponin ([…]), GDP ([…]) and [^35S]GTPγS (0.20 nM; Perkin Elmer, Shelton, Conn.). The prepared membrane solution (190 μl/well) was transferred to 96-shallow well polypropylene plates containing 10 μl of 20× concentrated stock solutions of the agonist [D-Ala^2, N-methyl-Phe^4 Gly-ol^5]-enkephalin (DAMGO) prepared in dimethyl sulfoxide (DMSO). Plates were incubated for 30 min at about 25° C. with shaking. Reactions were terminated by rapid filtration onto 96-well Unifilter GF/B filter plates (Perkin Elmer, Shelton, Conn.) using a 96-well tissue harvester (Perkin Elmer, Shelton, Conn.) followed by three filtration washes with 200 μl of ice-cold wash buffer (10 mM NaH2PO4, 10 mM Na2HPO4, pH 7.4). Filter plates were subsequently dried at 50° C. for 2-3 hours. BetaScint scintillation cocktail (Perkin Elmer, Shelton, Conn.) was added (50 μl/well) and plates were counted using a Packard Top-Count for 1 min/well. Data were analyzed using the sigmoidal dose-response curve fitting functions in GraphPad PRISM v. 3.0, or an in-house function for non-linear, sigmoidal dose-response curve-fitting.
(§3) μ-Opioid Receptor Functional Data: μ GTP EC50 is the concentration of a compound providing 50% of the maximal response for the compound at a μ-opioid receptor.
(§4) μ GTP Emax (%) is the maximal effect elicited by a compound relative to the effect elicited by DAMGO, a standard μ agonist. Generally, the μ GTP Emax (%) value measures the efficacy of a compound to treat or prevent pain or other Conditions.
(§5) In TABLE 2, activity response of certain Compounds of the Invention to the μ-, δ- and κ-opioid receptors was determined as described above for functional assays using HEK-293 or CHO cells.

κ opioid receptor [4] = target: T2, κ opioid receptor; experiment: κ-opioid receptor [35S]GTPγS functional assay, HEK-293 or CHO cells; assay type: biochemical
Experimental: (§6) κ-Opioid Receptor Functional Assay Procedures: Functional [^35S]GTPγS binding assays were conducted as follows. κ opioid receptor membrane solution was prepared by sequentially adding final concentrations of 0.026 μg/μl κ membrane protein (in-house), 10 μg/mL saponin, 3 μM GDP and 0.20 nM [^35S]GTPγS to binding buffer (100 mM NaCl, 10 mM MgCl2, 20 mM HEPES, pH 7.4) on ice. The prepared membrane solution (190 μl/well) was transferred to 96-shallow well polypropylene plates containing 10 μl of 20× concentrated stock solutions of agonist prepared in DMSO. Plates were incubated for 30 min at a temperature of about 25° C. with shaking. Reactions were terminated by rapid filtration onto 96-well Unifilter GF/B filter plates (Perkin Elmer, Shelton, Conn.) using a 96-well tissue harvester (Packard) and followed by three filtration washes with 200 μl ice-cold binding buffer (10 mM NaH2PO4, 10 mM Na2HPO4, pH 7.4). Filter plates were subsequently dried at 50° C. for 2-3 hours. Fifty μl/well scintillation cocktail (Perkin Elmer, Shelton, Conn.) was added and plates were counted in a Packard Top-Count for 1 min/well.
(§7) κ-Opioid Receptor Functional Data: κ GTP EC50 is the concentration of a compound providing 50% of the maximal response for the compound at a κ receptor.
(§8) κ GTP Emax (%) is the maximal effect elicited by a compound relative to the effect elicited by U69,593.
as §5

κ opioid receptor [5] = target: T2, κ opioid receptor; experiment: κ-opioid receptor [35S]GTPγS functional assay, U-2 OS cells; assay type: biochemical; settings: for Emax: relative to U69,593, U-2 OS cells
Experimental: as §6, §7, §8
(§9) The following TABLE 3 provides results on the activity response of certain Compounds of the Invention at the μ- and κ-opioid receptors determined as described above using U-2 OS cells.

μ-opioid receptor [6] = target: T1, μ-opioid receptor; experiment: μ-opioid receptor [35S]GTPγS functional assay, U-2 OS cells; assay type: biochemical; settings: for Emax: relative to DAMGO, U-2 OS cells
Experimental: as §2, §3, §4, §9

[7] = relative to DAMGO, HEK-293 or CHO cells
[8] = relative to U69,593, HEK-293 or CHO cells

Q: What does the source list for CN1CC[C@]23C[C@]4(CC[C@@]2(O)[C@H]1Cc1ccc(O)cc13)NC(=O)NC4=O [Compound 10, (4bR,4′S,8aS,9R)-3,8a-dihydroxy-11-methyl-5,7,8,8a,9,10-hexahydrospiro[9,4b-(epiminoethano)phenanthrene-6,4′-imidazolidine]-2′,5′-dione]?
A: Ki (μ-opioid receptor [1]): 27 ± 3.07 nM; Ki (κ opioid receptor [2]): 155 ± 29.5 nM

Q: For “(4bS,4′S,8aR,9R)-11-(cyclopropylmethyl)-3-hydroxy-5,7,8,8a,9,10-hexahydrospiro[9,4b-(epiminoethano)phenanthrene-6,4′-imidazolidin]-2′-one [Compound 8]”, which Ki (κ opioid receptor [2]) is on record?
A: 0.2 ± 0.05 nM

Q: What about the EC50 (μ-opioid receptor [3]; GTPγS, HEK-293 or CHO cells, read-out: Opioid Receptor μ EC50) of the same compound?
A: 7.39 ± 1.89 nM

Q: And the “Opioid Receptor μ Emax (%)” value (μ-opioid receptor [3]; [7])?
A: 39.67 ± 3.28%

Q: What about the EC50 (κ opioid receptor [4]; GTPγS, HEK-293 or CHO cells, read-out: Opioid Receptor κ EC50) of the same compound?
A: 27.2 ± 8.1 nM

Q: And the “Opioid Receptor κ Emax (%)” value (κ opioid receptor [4]; [8])?
A: 91.33 ± 5.04%

Q: With COc1ccc2c(c1)[C@]13CCN(CC4CC4)[C@H](C2)[C@]1(O)CC[C@@]1(CNC(=O)N1)C3 [Compound 4, (4bR,4′S,8aS,9R)-11-(cyclopropylmethyl)-8a-hydroxy-3-methoxy-5,7,8,8a,9,10-hexahydrospiro[9,4b-(epiminoethano)phenanthrene-6,4′-imidazolidin]-2′-one] as the compound, how does the Ki (κ opioid receptor [2]) read?
A: 135 ± 38.1 nM

Q: And the EC50 (μ-opioid receptor [3])?
A: 809 ± 143 nM

Q: And the Emax (μ-opioid receptor [3]; [7])?
A: 20.7 ± 0.67%

Q: What about the EC50 (κ opioid receptor [4]) of the same compound?
A: 901 ± 389 nM

Q: And the Emax (κ opioid receptor [4]; [8])?
A: 44.3 ± 1.45%

Q: For COc1ccc2c(c1)[C@]13CCN(CCF)[C@H](C2)[C@]1(O)CC[C@@]1(C3)NC(=O)NC1=O [Compound 14, (4bR,4′S,8aS,9R)-1-(2-fluoroethyl)-8a-hydroxy-3-methoxy-5,7,8,8a,9,10-hexahydrospiro[9,4b-(epiminoethano)phenanthrene-6,4′-imidazolidine]-2′,5′-dione], which EC50 (κ opioid receptor [5]) is on record?
A: > 20000 nM

Q: And the Emax (κ opioid receptor [5])?
A: 110 ± 6.74%

Q: And the EC50 (μ-opioid receptor [6])?
A: > 20000 nM

Q: And the Emax (μ-opioid receptor [6])?
A: 14.5%

Q: CCN1C(=O)N[C@]2(CC[C@@]3(O)[C@H]4Cc5ccc(OC)cc5[C@@]3(CCN4CC)C2)C1=O [Compound 16, (4bR,4′S,8aS,9R)-1′,11-diethyl-8a-hydroxy-3-methoxy-5,7,8,8a,9,10-hexahydrospiro[9,4b-(epiminoethano)phenanthrene-6,4′-imidazolidine]-2′,5′-dione] was tested. Which EC50 (κ opioid receptor [5]) did it give?
A: > 20000 nM

Q: What about the Emax (κ opioid receptor [5]) of the same compound?
A: 50 ± 1%

Q: What about the EC50 (μ-opioid receptor [6]) of the same compound?
A: > 20000 nM

Q: And the Emax (μ-opioid receptor [6])?
A: 8.5%

Q: Which EC50 (κ opioid receptor [5]) does the source give for O=C1NC(=O)[C@@]2(CC[C@@]3(O)[C@H]4Cc5ccc(O)cc5[C@@]3(CCN4CC(F)F)C2)N1 [Compound 38, (4bR,4′S,8aS,9R)-11-(2,2-difluoroethyl)-3,8a-dihydroxy-5,7,8,8a,9,10-hexahydrospiro[9,4b-(epiminoethano)phenanthrene-6,4′-imidazolidine]-2′,5′-dione] here?
A: 441 ± 144 nM

Q: And the Emax (κ opioid receptor [5])?
A: 99 ± 3.51%

Q: What about the EC50 (μ-opioid receptor [6]) of the same compound?
A: > 20000 nM

Q: And the Emax (μ-opioid receptor [6])?
A: 12 ± 1%

Q: COc1ccc2c(c1)[C@]13CCN(CC4CC4)[C@H](C2)[C@@H]1CC[C@@]1(C3)NC(=O)NC1=O [Compound 6, (4bS,4′S,8aR,9R)-11-(cyclopropylmethyl)-3-methoxy-5,7,8,8a,9,10-hexahydrospiro[9,4b-(epiminoethano)phenanthrene-6,4′-imidazolidine]-2′,5′-dione] was tested. Which Ki (κ opioid receptor [2]) did it give?
A: 12.2 ± 2.61 nM

Q: And the EC50 (μ-opioid receptor [3])?
A: 1460 ± 121 nM

Q: And the Emax (μ-opioid receptor [3]; [7])?
A: 58.3 ± 5.24%

Q: And the EC50 (κ opioid receptor [4])?
A: 1230 ± 380 nM

Q: What about the Emax (κ opioid receptor [4]; [8]) of the same compound?
A: 89.7 ± 3.53%

Q: Which EC50 (κ opioid receptor [5]) does the source give for COc1ccc2c(c1)[C@]13CCN(CC4CCOCC4)[C@H](C2)[C@]1(O)CC[C@@]1(C3)NC(=O)NC1=O [Compound 25, (4bR,4′S,8aS,9R)-8a-hydroxy-3-methoxy-11-((tetrahydro-2H-pyran-4-yl)methyl)-5,7,8,8a,9,10-hexahydrospiro[9,4b-(epiminoethano)phenanthrene-6,4′-imidazolidine]-2′,5′-dione] here?
A: > 20000 nM

Q: What about the Emax (κ opioid receptor [5]) of the same compound?
A: 10 ± 4.6%

Q: And the EC50 (μ-opioid receptor [6])?
A: > 20000 nM

Q: And the Emax (μ-opioid receptor [6])?
A: 6.67 ± 0.88%

Q: What does the source list for O=C1NC(=O)[C@@]2(CC[C@@]3(O)[C@H]4Cc5ccc(O)cc5[C@@]3(CCN4CCCC(F)(F)F)C2)N1 [Compound 34, (4bR,4′S,8aS,9R)-3,8a-dihydroxy-11-(4,4,4-trifluorobutyl)-5,7,8,8a,9,10-hexahydrospiro[9,4b-(epiminoethano)phenanthrene-6,4′-imidazolidine]-2′,5′-dione]?
A: EC50 (κ opioid receptor [5]): 2240 ± 120 nM; Emax (κ opioid receptor [5]): 87.7 ± 3.28%; EC50 (μ-opioid receptor [6]): 869 ± 131 nM; Emax (μ-opioid receptor [6]): 47 ± 2.08%

Q: Which results are given for COc1ccc2c(c1)[C@]13CCN(CCCC(F)(F)F)[C@H](C2)[C@]1(O)CC[C@@]1(C3)NC(=O)NC1=O [Compound 18, (4bR,4′S,8aS,9R)-8a-hydroxy-3-methoxy-11-(4,4,4-trifluorobutyl)-5,7,8,8a,9,10-hexahydrospiro[9,4b-(epiminoethano)phenanthrene-6,4′-imidazolidine]-2′,5′-dione]?
A: EC50 (κ opioid receptor [5]): > 20000 nM; Emax (κ opioid receptor [5]): 86 ± 7.21%; EC50 (μ-opioid receptor [6]): > 20000 nM; Emax (μ-opioid receptor [6]): 20.7 ± 4.81%

— patent US8987287B2, “Spirocyclic morphinans and their use” (Purdue Pharma L.P., priority 2012, dated 2015)
